Data on 26 molecules can be found in patent US20230121086A1, “RORgT INHIBITOR, PREPARATION METHOD THEREOF AND USE THEREOF” (SUNSHINE LAKE PHARMA CO., LTD., priority 2020, published 2023).

In this assay the target is T1, RORγt (Homo sapiens, UniProt P51449).
T1 construct: […]
T1 sequence (P51449 269-508 limits assumed): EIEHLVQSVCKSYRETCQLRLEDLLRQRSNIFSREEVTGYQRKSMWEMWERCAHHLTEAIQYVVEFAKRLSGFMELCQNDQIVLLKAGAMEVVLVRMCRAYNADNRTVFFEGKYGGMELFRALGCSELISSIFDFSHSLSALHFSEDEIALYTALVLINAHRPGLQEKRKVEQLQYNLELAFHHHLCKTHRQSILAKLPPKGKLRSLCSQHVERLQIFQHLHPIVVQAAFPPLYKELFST
Briefly: Fluorescence resonance energy transfer (FRET) test, inhibitory activity of RORγt. Format: biochemical. The conditions noted are these: FRET, B-RORγt LBD / Biotin-SRC1; read-out: IC50.
In general, IC50 refers to the concentration at which inhibition is half-maximal. For the molecule `CCS(=O)(=O)c1ccc([C@H](CC#N)NC(=O)c2ccc(N3C[C@@H](Oc4ccc(OC(C)C)nc4)C[C@H]3COC(F)F)cc2)cc1` [Example 20, N-((S)-2-cyano-1-(4-(ethylsulfonyl)phenyl)ethyl)-4-((2S,4S)-2-((difluoromethoxy)methyl)-4-((6-isopropoxypyridin-3-yl)oxy)pyrrolidin-1-yl)benzamide], the IC50 turned out to be 30 nM.
Regarding `CCS(=O)(=O)c1ccc([C@H](CC#N)NC(=O)c2ccc(N3C[C@@H](Oc4ccc(Cl)cc4)C[C@H]3COC(F)F)cc2)cc1` [Example 21, 4-((2S)-4-(4-chlorophenoxy)-2-((difluoromethoxy)methyl)pyrrolidin-1-yl)-N-((S)-2-cyano-1-(4-(ethylsulfonyl)phenyl)ethyl)benzamide], the IC50 worked out at 2 nM.
For `CCS(=O)(=O)c1ccc([C@H](CC#N)NC(=O)c2ccc(N3C[C@@H](Oc4ccc(C#N)cc4)C[C@H]3COC(F)F)cc2)cc1` [Example 24, N-((S)-2-cyano-1-(4-(ethylsulfonyl)phenyl)ethyl)-4-((2S,4S)-4-(4-cyanophenoxy)-2-((difluoromethoxy)methyl)pyrrolidin-1-yl)benzamide], the IC50 turned out to be 19 nM.
For `CCS(=O)(=O)c1ccc([C@H](CC#N)NC(=O)c2ccc(N3C[C@@H](Oc4ccc(C(N)=O)cc4)C[C@H]3COC(F)F)cc2)cc1` [Example 25, 4-((2S,4S)-4-(4-carbamoylphenoxy)-2-((difluoromethoxy)methyl)pyrrolidin-1-yl)-N-((S)-2-cyano-1-(4-(ethylsulfonyl)phenyl)ethyl)benzamide], the IC50 was 66 nM.
For the molecule `CCS(=O)(=O)c1ccc([C@H](CC#N)NC(=O)c2ccc(N3C[C@@H](Oc4ccc(C(O)(C(F)(F)F)C(F)(F)F)cc4)C[C@H]3COC(F)F)cc2)cc1` [Example 26, N-((S)-2-cyano-1-(4-(ethylsulfonyl)phenyl)ethyl)-4-((2S,4S)-2-((difluoromethoxy)methyl)-4-(4-(1,1,1,3,3,3-hexafluoro-2-hydroxypropan-2-yl)phenoxy)pyrrolidin-1-yl)benzamide], the IC50 was 23 nM.
As for `CCS(=O)(=O)c1ccc([C@H](CC#N)NC(=O)c2ccc(N3C[C@@H](Oc4ccc(F)cc4)C[C@H]3COC(F)F)cc2)cc1` [Example 28, N-((S)-2-cyano-1-(4-(ethylsulfonyl)phenyl)ethyl)-4-((2S,4S)-2-((difluoromethoxy)methyl)-4-(4-fluorophenoxy)pyrrolidin-1-yl)benzamide], the figure is 24 nM.
The result for `CCS(=O)(=O)c1ccc([C@H](CC#N)NC(=O)c2ccc(N3C[C@H](NCC4CCC(F)(F)CC4)C[C@H]3COC(F)F)cc2)cc1` [Example 31] reads 59.8 nM.
With `CCS(=O)(=O)c1ccc([C@H](CC#N)NC(=O)c2ccc(N3C[C@H](N(C)CC4CCC(F)(F)CC4)C[C@H]3COC(F)F)cc2)cc1` [Example 32], the IC50 stood at 61.1 nM.
As for `CCS(=O)(=O)c1ccc([C@H](CC#N)NC(=O)c2ccc(N3C[C@@H](OCc4ccc(OC(F)(F)F)cc4)C[C@H]3COC(F)F)cc2)cc1` [Example 39, N—((S)-2-cyano-1-(4-(ethylsulfonyl)phenyl)ethyl)-4-((2S,4S)-2-((difluoromethoxy)methyl)-4-((4-(trifluoromethoxy)benzyl)oxy)pyrrolidin-1-yl)benzamide], the figure is 67.5 nM.
Regarding `CCS(=O)(=O)c1ccc([C@H](CC#N)NC(=O)c2ccc(N3C[C@@H](Oc4ccc(C5CC5)cn4)C[C@H]3COC(F)F)cc2)cc1` [Example 40, N—((S)-2-cyano-1-(4-(ethylsulfonyl)phenyl)ethyl)-4-((2S,4S)-4-((5-cyclopropylpyridin-2-yl)oxy)-2-((difluoromethoxy)methyl)pyrrolidin-1-yl)benzamide], the half-maximal inhibitory concentration (IC50) came out at 21 nM.
The result for `CCS(=O)(=O)c1ccc([C@H](CC#N)NC(=O)c2ccc(N3C[C@@H](Oc4ccc(OC)cn4)C[C@H]3COC(F)F)cc2)cc1` [Example 41, N—((S)-2-cyano-1-(4-(ethylsulfonyl)phenyl)ethyl)-4-((2S,4S)-2-((difluoromethoxy)methyl)-4-((5-methoxypyridin-2-yl)oxy)pyrrolidin-1-yl)benzamide] reads 17 nM.
As to `CCS(=O)(=O)c1ccc([C@H](CC#N)NC(=O)c2ccc(N3C[C@@H](Oc4ccc(-n5cnc(C)c5)cc4)C[C@H]3COC(F)F)cc2)cc1` [Example 45, N—((S)-2-cyano-1-(4-(ethylsulfonyl)phenyl)ethyl)-4-((2S,4S)-2-((difluoromethoxy)methyl)-4-(4-(4-methyl-1H-imidazol-1-yl)phenoxy)pyrrolidin-1-yl)benzamide], the IC50 is 43 nM.
`CS(=O)(=O)c1ccc([C@H](CC#N)NC(=O)c2ccc(N3C[C@@H](Oc4ccc(C(F)(F)F)cc4)C[C@H]3COC(F)F)cc2)cc1` [Example 62, N-((S)-2-cyano-1-(4-(methylsulfonyl)phenyl)ethyl)-4-((2S,4S)-2-((difluoromethoxy)methyl)-4-(4-(trifluoromethyl)phenoxy)pyrrolidin-1-yl)benzamide]: the IC50 worked out at 22 nM.
On to `CCS(=O)(=O)c1ccc([C@H](CC#N)NC(=O)c2ccc(N3C[C@@H](Oc4ccc(C(F)(F)F)cc4)C[C@H]3COC(F)F)c(Cl)c2)cc1` [Example 66, 3-chloro-N-((S)-2-cyano-1-(4-(ethylsulfonyl)phenyl)ethyl)-4-((2S,4S)-2-((difluoromethoxy)methyl)-4-(4-(trifluoromethyl)phenoxy)pyrrolidin-1-yl)benzamide], for which the IC50 was found to be 33 nM.
The result for `CCS(=O)(=O)c1ccc([C@H](CC#N)NC(=O)c2ccc(N3C[C@@H](Oc4ccc(C(F)(F)F)cc4)C[C@H]3CCOC(F)F)cc2)cc1` [Example 75, N—((S)-2-cyano-1-(4-(ethylsulfonyl)phenyl)ethyl)-4-((2R,4S)-2-(2-(difluoromethoxy)ethyl)-4-(4-(trifluoromethyl)phenoxy)pyrrolidin-1-yl)benzamide] reads 10 nM; that for `CCS(=O)(=O)c1ccc([C@H](CC#N)NC(=O)c2ccc(N3C[C@@H](Oc4ccc(C(F)(F)F)cc4)C[C@H]3CCOC(F)(F)F)cc2)cc1` [Example 76, N—((S)-2-cyano-1-(4-(ethylsulfonyl)phenyl)ethyl)-4-((2R,4S)-2-(2-(trifluoromethoxy)ethyl)-4-(4-(trifluoromethyl)phenoxy)pyrrolidin-1-yl)benzamide], 18 nM.
For the molecule `CCOC[C@@H]1C[C@H](Oc2ccc(C(F)(F)F)cc2)CN1c1ccc(C(=O)N[C@H](CC#N)c2ccc(S(=O)(=O)CC)cc2)cc1` [Example 77, N—((R)-2-cyano-1-(4-(ethylsulfonyl)phenyl)ethyl)-4-((2S,4S)-2-(ethoxymethyl)-4-(4-(trifluoromethyl)phenoxy)-1-pyrrolidine)benzamide], the concentration for half-maximal inhibition (IC50) is 7 nM.
As for `CCS(=O)(=O)c1ccc([C@H](CC#N)NC(=O)c2ccc(N3C[C@@H](Oc4ccc5c(c4)OC(F)(F)O5)C[C@H]3COC(F)F)cc2)cc1` [Example 78, N—((S)-2-cyano-1-(4-(ethylsulfonyl)phenyl)ethyl)-4-((2S,4S)-4-((2,2-difluorobenzo[d][1,3]dioxol-5-yl)oxy)-2-((difluoromethoxy)methyl)pyrrolidin-1-yl)-benzamide], the IC50 came to 12 nM.
As for `CCS(=O)(=O)c1ccc([C@H](CC#N)NC(=O)c2ccc(N3C[C@@H](OC4CCC(C(F)(F)F)CC4)C[C@H]3COC(F)F)cc2)cc1` (stereo partly drawn) [Example 89, N—((S)-2-cyano-1-(4-(ethylsulfonyl)phenyl)ethyl)-4-((2S)-2-((difluoromethoxy)methyl)-4-((4-(trifluoromethyl)cyclohexyl)oxy)pyrrolidin-1-yl)benzamide], the figure is 14 nM; as for `CCS(=O)(=O)c1ccc([C@H](COCC(=O)O)NC(=O)c2ccc(N3C[C@@H](Oc4ccc(C(F)(F)F)cc4)C[C@H]3COC(F)F)cc2)cc1` [Example 90, 2-((R)-2-(4-((2S,4S)-2-((difluoromethoxy)methyl)-4-(4-(trifluoromethyl)phenoxy)pyrrolidin-1-yl)benzoylamino)-2-(4-(ethylsulfonyl)phenyl)ethoxy)acetic Acid], 9 nM.
As for `CCS(=O)(=O)c1ccc([C@H](CC(=O)O)NC(=O)c2ccc(N3C[C@@H](Oc4ccc(C(F)(F)F)cc4)C[C@H]3COC(F)F)cc2)cc1` [Example 92, (S)-3-(4-((2S,4S)-2-((difluoromethoxy)methyl)-4-(4-(trifluoromethyl)phenoxy)pyrrolidin-1-yl)benzoylamino)-3-(4-(ethylsulfonyl)phenyl)propionic Acid], the figure is 21 nM; as for `CCS(=O)(=O)c1ccc([C@H](CC(=O)NO)NC(=O)c2ccc(N3C[C@@H](Oc4ccc(C(F)(F)F)cc4)C[C@H]3COC(F)F)cc2)cc1` [Example 93], 13 nM; as for `CCS(=O)(=O)c1ccc([C@H](CC(=O)NC)NC(=O)c2ccc(N3C[C@@H](Oc4ccc(C(F)(F)F)cc4)C[C@H]3COC(F)F)cc2)cc1` [Example 94], 31 nM.
The result for `CCS(=O)(=O)c1ccc([C@H](CC(=O)N(C)C)NC(=O)c2ccc(N3C[C@@H](Oc4ccc(C(F)(F)F)cc4)C[C@H]3COC(F)F)cc2)cc1` [Example 95] reads 77 nM.
Consider `CCS(=O)(=O)c1ccc([C@H](CC(=O)OC)NC(=O)c2ccc(N3C[C@@H](Oc4ccc(C(F)(F)F)cc4)C[C@H]3COC(F)(F)F)cc2)cc1` [Example 96, methyl (S)-3-(4-(ethylsulfonyl)phenyl)-3-(4-((2S,4S)-2-((trifluoromethoxy)methyl)-4-(4-(trifluoromethyl)phenoxy)pyrrolidin-1-yl)benzamido)propionate], for which the IC50 worked out at 31 nM.
The result for `CCS(=O)(=O)c1ccc([C@H](CC(=O)OC)NC(=O)c2ccc(N3C[C@@H](Oc4ccc(C(F)(F)F)cc4)C[C@H]3COC(F)F)cc2)cc1` [Example 97, methyl (S)-3-(4-((2S,4S)-2-((difluoromethoxy)methyl)-4-(4-(trifluoromethyl)phenoxy)pyrrolidin-1-yl)benzoylamino)-3-(4-(ethylsulfonyl)phenyl)propionate] reads 21 nM.
